Reference: patent US7629349B2, “Pyrazolo [3,4-d] pyrimidine derivatives and their use as purinergic receptor antagonists” (Vernalis Research Limited, priority 2001, dated 2009)
Structures can show the parent of a compound that is named as a salt.

Test system: catalepsy
Assay: not given
Conditions: in vivo; cited from earlier work

Row | Compound | anticataleptic effects of a subthreshold dose of L-DOPA plus benserazide | catalepsy induced by haloperidol and reserpine
1 | CCCn1c(=O)c2c(nc(/C=C/c3ccc(OC)c(OC)c3)n2C)n(CCC)c1=O [KF 17837, (E)-8-(3,4-dimethoxystyryl)-1,3-dipropyl-7-methylxanthine] | potentiated | reduced

Same assay, conditions: oral administration; cited from earlier work

Row | Compound | cataleptic responses induced by intracerebroventricular CGS 21680
2 | CCCn1c(=O)c2c(nc(/C=C/c3ccc(OC)c(OC)c3)n2C)n(CCC)c1=O [KF 17837, (E)-8-(3,4-dimethoxystyryl)-1,3-dipropyl-7-methylxanthine] | significantly ameliorated

Target: human adenosine A2A receptor (Homo sapiens, UniProt P29274)
Sequence (P29274 whole entry): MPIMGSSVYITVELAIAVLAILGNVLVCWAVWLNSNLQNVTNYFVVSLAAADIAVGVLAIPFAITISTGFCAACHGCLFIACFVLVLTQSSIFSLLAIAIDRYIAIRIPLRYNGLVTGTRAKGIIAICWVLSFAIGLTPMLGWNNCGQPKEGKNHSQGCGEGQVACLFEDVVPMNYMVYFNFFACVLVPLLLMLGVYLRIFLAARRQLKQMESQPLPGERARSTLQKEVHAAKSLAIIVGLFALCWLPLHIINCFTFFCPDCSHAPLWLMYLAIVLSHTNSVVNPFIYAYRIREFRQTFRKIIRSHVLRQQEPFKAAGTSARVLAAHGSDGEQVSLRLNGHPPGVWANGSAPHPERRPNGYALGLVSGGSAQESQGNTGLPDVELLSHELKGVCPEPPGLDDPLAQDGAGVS
Assay: Binding affinities at hA2A receptors, displacement of [3H]-CGS 21680
Conditions: not given

Row | Compound | Ki [nM]
3 | Nc1nc(-c2ccco2)c2cnn(Cc3ccccc3F)c2n1 [Example 14, 1-(2-fluorobenzyl)-4-(2-furyl)-1H-pyrazolo[3,4-d]pyrimidine-6-amine] | 2
4 | Nc1nc(-c2ccco2)c2cnn(CCCc3ccccc3)c2n1 [Example 31, 4-(2-furyl)-1-(3-phenylpropyl)-1H-pyrazolo[3,4-d]pyrimidine-6-amine] | 2
5 | Cc1cccc(Cn2ncc3c(-c4ccco4)nc(N)nc32)c1 [Example 15, 4-(2-furyl)-1-(3-methylbenzyl)-1H-pyrazolo[3,4-d]pyrimidine-6-amine] | 2
6 | Nc1nc(-c2cccs2)c2cnn(Cc3ccccc3F)c2n1 [Example 28, 1-(2-fluorobenzyl)-4-(2-thienyl)-1H-pyrazolo[3,4-d]pyrimidine-6-amine] | 5
7 | Nc1nc(-c2nnc[nH]2)c2cnn(Cc3ccccc3F)c2n1 [Example 51, 1-(2-fluorobenzyl)-4-(1,2,4-triazol-3-yl)-1H-pyrazolo[3,4-d]pyrimidine-6-amine] | 71

Same assay, conditions: human adenosine A2A receptor, radioligand [3H]-CGS 21680

Row | Compound | Ki [nM]
8 | Nc1nc(-c2ccn[nH]2)c2cnn(Cc3ccccc3F)c2n1 [Example 55, 1-(2-fluorobenzyl)-4-(3-pyrazolyl)-1H-pyrazolo[3,4-d]pyrimidine-6-amine] | 16
9 | Nc1nc(-c2ccco2)c2cnn(Cc3ccccc3Cl)c2n1 [Example 11, 1-(2-chlorobenzyl)-4-(2-furyl)-1H-pyrazolo[3,4-d]pyrimidine-6-amine] | 9
10 | Nc1nc(-c2ccco2)c2cnn(Cc3ccccc3N)c2n1 [Example 56, 1-(2-aminobenzyl)-4-(2-furyl)-1H-pyrazolo[3,4-d]pyrimidine-6-amine] | 8
11 | Nc1nc(-c2ccco2)c2cnn(Cc3ccc(C(F)(F)F)cc3)c2n1 [Example 22, 4-(2-furyl)-1-(4-trifluoromethylbenzyl)-1H-pyrazolo[3,4-d]pyrimidine-6-amine] | 6
12 | Nc1cccc(Cn2ncc3c(-c4ccco4)nc(N)nc32)c1 [Example 32, 1-(3-aminobenzyl)-4-(2-furyl)-1H-pyrazolo[3,4-d]pyrimidine-6-amine] | 4
13 | Nc1nc(-c2ccco2)c2cnn(Cc3c(F)cccc3F)c2n1 [Example 24, 1-(2,6-difluorobenzyl)-4-(2-furyl)-1H-pyrazolo[3,4-d]pyrimidine-6-amine] | 2
14 | COc1cccc(Cn2ncc3c(-c4ccco4)nc(N)nc32)c1 [Example 12, 4-(2-furyl)-1-(3-methoxybenzyl)-1H-pyrazolo[2,4-d]pyrimidine-6-amine] | 2
15 | Nc1nc(-c2ccco2)c2cnn(Cc3cccc([N+](=O)[O-])c3)c2n1 [Example 30, 4-(2-furyl)-1-(3-nitrobenzyl)-1H-pyrazolo[3,4-d]pyrimidine-6-amine] | 4
16 | Nc1nc(-c2ccccn2)c2cnn(Cc3ccccc3F)c2n1 [Example 33, 1-(2-fluorobenzyl)-4-(2-pyridyl)-1H-pyrazolo[3,4-d]pyrimidine-6-amine] | 12

Test system: not given
Assay: not given
Conditions: not given

Row | Compound | melting point [°C]
17 | Nc1nc(-c2ccn[nH]2)c2cnn(Cc3cccc([N+](=O)[O-])c3)c2n1 [Example 59, 1-(3-nitrobenzyl)-4-(3-pyrazolyl)-1H-pyrazolo[3,4-d]pyrimidine-6-amine] | 278.5 to 279
18 | Clc1nc(-c2ccco2)c2cnn(CCc3ccccc3)c2n1 [Example 1, 6-chloro-4-(2-furyl)-1-(2-phenylethyl)-1H-pyrazolo[3,4-d]pyrimidine] | 85.1 to 85.6
19 | Nc1cccc(Cn2ncc3c(-c4nccs4)nc(N)nc32)c1 [Example 62, 1-(3-aminobenzyl)-4-(2-thiazolyl)-1H-pyrazolo[3,4-d]pyrimidine-6-amine] | 177.8 to 178.3
20 | COc1cccc(NC(=O)Cn2ncc3c(-c4ccco4)nc(N)nc32)c1 [Example 43, 6-amino-4-(2-furyl)-N-(3-methoxyphenyl)-1H-pyrazolo[3,4-d]pyrimidin-1-ylacetamide] | 267.4 to 271.5
21 | Nc1nc(-c2ccco2)c2cnn(CC(=O)NCCc3ccccc3)c2n1 [Example 44, 6-amino-4-(2-furyl)-N-(2-phenylethyl)-1H-pyrazolo[3,4-d]pyrimidin-1-ylacetamide] | 231.1 to 231.2
22 | Nc1cccc(Cn2ncc3c(-c4nnc[nH]4)nc(N)nc32)c1 [Example 60, 1-(3-aminobenzyl)-4-(1,2,4-triazol-3-yl)-1H-pyrazolo[3,4-d]pyrimidine-6-amine] | 193.3 to 193.4
23 | COc1cccc(Cn2ncc3c(-c4ccn[nH]4)nc(N)nc32)c1 [Example 64, 1-(3-methoxybenzyl)-4-(1H-pyrazol-3-yl)-1H-pyrazolo[3,4-d]pyrimidine-6-amine] | 171 to 172
24 | Nc1nc(-c2ccco2)c2cnn(CC(=O)NCc3ccccc3)c2n1 [Example 34, 6-amino-N-benzyl-4-(2-furyl)-1H-pyrazolo[3,4-d]pyrimidin-1-ylacetamide] | 276.8 to 277.2
25 | CC(C)(C)OC(=O)n1ncc2c(-c3ccco3)nc(N)nc21 [Example 4, tert-butyl 6-amino-4-(2-furyl)-1H-pyrazolo[3,4-d]pyrimidine-1-carboxylate] | 261.9 to 262.7
26 | Nc1nc(-c2ccco2)c2cnn(CC(=O)Nc3ccccn3)c2n1 (as salt: HCl) [Example 29, 6-amino-4-(2-furyl)-N-(2-pyridyl)-1H-pyrazolo[3,4-d]pyrimidin-1-ylacetamide] | 249.8 to 249.9
27 | Nc1nc(-c2ccco2)c2cnn(CC(=O)Nc3ccccc3)c2n1 [Example 35, 6-amino-4-(2-furyl)-N-phenyl-1H-pyrazolo[3,4-d]pyrimidin-1-ylacetamide] | 276.8 to 277.2
28 | CC(C)n1ncc2c(-c3ccco3)nc(N)nc21 (as salt: HCl) [Example 21, 4-(2-furyl)-1-(1-methylethyl)-1H-pyrazolo[3,4-d]pyrimidine-6-amine] | 191.4 to 191.5
29 | Nc1nc(-c2ccco2)c2cnn(CC(=O)Nc3ccccc3F)c2n1 [Example 45, 6-amino-N-(2-fluorophenyl)-4-(2-furyl)-1H-pyrazolo[3,4-d]pyrimidin-1-ylacetamide] | 276.2 to 278.5
30 | Cc1ccc(Cn2ncc3c(-c4ccn[nH]4)nc(N)nc32)cc1 [Example 50, 1-(4-methylbenzyl)-4-(1H-pyrazol-3-yl)-1H-pyrazolo[3,4-d]pyrimidine-6-amine] | 265.8
31 | CCOC(=O)Cn1ncc2c(-c3ccco3)nc(N)nc21 [Example 26, ethyl 6-amino-4-(2-furyl)-1H-pyrazolo[3,4-d]pyrimidine-1-ylacetate] | 177 to 177.1
32 | Nc1nc(-c2ccco2)c2cnn(CC(=O)NCc3ccco3)c2n1 [Example 37, 6-amino-4-(2-furyl)-N-(2-furylmetyl)-1H-pyrazolo[3,4-d]pyrimidin-1-ylacetamide] | 247.9 to 249.4
33 | Nc1nc(-c2nnc[nH]2)c2cnn(Cc3ccccc3F)c2n1 [Example 51, 1-(2-fluorobenzyl)-4-(1,2,4-triazol-3-yl)-1H-pyrazolo[3,4-d]pyrimidine-6-amine] | 287.9
34 | Nc1nc(-c2nccs2)c2cnn(Cc3cccc([N+](=O)[O-])c3)c2n1 [Example 61, 1-(3-nitrobenzyl)-4-(2-thiazolyl)-1H-pyrazolo[3,4-d]pyrimidine-6-amine] | 193.3 to 193.4
35 | CCCCCn1ncc2c(-c3ccco3)nc(N)nc21 (as salt: HCl) [Example 23, 4-(2-furyl)-1-n-pentyl-1H-pyrazole[3,4-d]pyrimidine-6-amine] | 218

Test system: Parkinsonian patients
Assay: not given
Conditions: 15 Parkinsonian patients, up to 12 weeks, 150 mg/day oral; cited from earlier work

Row | Compound | mean objective disability scores
36 | Cn1c(=O)c2[nH]cnc2n(C)c1=O [theophylline, 1,3-dimethylxanthine] | significant improvements

Same assay, conditions: of 15 Parkinsonian patients, up to 12 weeks, 150 mg/day oral; cited from earlier work

Row | Compound | patients reporting moderate or marked subjective improvement
37 | Cn1c(=O)c2[nH]cnc2n(C)c1=O [theophylline, 1,3-dimethylxanthine] | 11

Same assay, conditions: slow release oral theophylline preparation 150 mg/day, after one week; cited from earlier work

Row | Compound | serum theophylline levels [mg/L]
38 | Cn1c(=O)c2[nH]cnc2n(C)c1=O [theophylline, 1,3-dimethylxanthine] | 4.44
